The text below walks through data of US20100028407A1, “LAYERED BIO-ADHESIVE COMPOSITIONS AND USES THEREOF” (UNIVERSITY OF LOUISVILLE RESEARCH FOUNDATION, INC., priority 2006, published 2010).

Data set [1] relates to photo receptor cells (PRC), choriocapillaris (CC) and RPE cells. Nature of the data set: Live-Dead cell viability immediately after photo-melding conditions. The data set is classed as cell-based. Conditions: control PBS. On the procedure: Cellular viability of photo receptor cells (PRC), choriocapillaris (CC) and RPE cells were determined with the Live-Dead assay (Molecular Probes, Portland, Oreg.) to determine the safety of the photo-melding procedure. Human cadaver eyes were obtained from an eye bank. Anterior segments were removed and sensory retina and RPE-CC complex were dissected out. Tissue samples of 6-mm size were cut from each layer and placed in 1.5 mM and 10 mM rose bengal solution. Using similar parameters photo-melding conditions were mimicked. Viability was assessed immediately after exposure. Samples exposed to similar lighting conditions in PBS were taken as control.

Data set [2] in a line: TEM and SEM ultrastructure of photo-melded Bruch's membrane explants. Conditions: 0.1 to 20 mM tested. On the procedure: Bruch's membrane explants were photo-melded with varying concentrations of rose bengal, ranging from 0.1 to 20 mM. Transmission electron microscopy (TEM) and scanning electron microscopy (SEM). […] At this concentration, cross linked collagen fibers twisted onto themselves and formed macro bundles. At concentrations higher that 1.5 mM, attenuation of individual collagen fibers and frequent breaks lead to the disruption of collagen framework resulting in hollow spaces at 10 and 20 mM concentrations. Starting from 0.1 mM concentration, the number of electron-dense collagen fibers increased as the concentration of rose bengal increased, possibly due to increased oxidation and subsequent better attraction of positively charged lead and osmium on the collagen fiber. At concentrations higher than 10 mM electron dense haze started to accumulate around the collagen debris.

For a further data set, the system named is PRC, CC and RPE cells. Nature of the data set: Live-Dead cell viability after photo-melding of Bruch's membrane patch graft in eyecup followed by ambient light. The data set is classed as cell-based, human. The note with it: 1.5 mM rose bengal; 6 hours ambient light at room temperature.
A short description of data set [3]: Closure of 3 mm corneal wounds by impregnated gelatin sheets, Seidel test under rising intraocular pressure. On the set-up: species or system porcine. Conditions: about 100-μm gelatin sheet (50% gelatin, 300 mM sucrose) impregnated with rose bengal 1.5 mM (light pipe 3 min), glyceraldehyde 0.2 M (no illumination) or riboflavin 0.1% (UV 370 nm); average±standard deviation.
Description: Gelatin blocks were prepared by the following method: Gelatin (300 Blooms, Sigma, St. Louis, Mo.) was dissolved in Minimal Essential Medium (MEM, Gibco, Grand Island, N.Y.), 300 mM sucrose was added and the solution was sterilized with gamma irradiation (2.7 Megarads). Addition of 300 mM sucrose maintained the gelatin sheets in a solid phase at temperatures below 37° C. and allowed the gelatin sheet to melt within minutes at body temperature once the gelatin sheet were placed over the wound. Gelatin blocks were prepared at a concentration of about 50% (weight/volume of MEM), which were firm enough to manipulate during the surgery by the surgeon. These gelatin blocks have rigidity of 300 blooms. Once the gelatin/sucrose solution in MEM was sterilized, the solution was poured into 35-mm tissue culture dish (Falcon #3001, Becton Dickinson, Lincoln Park, N.J.) and allowed to cool for 15 minutes to solidify at room temperature. […]
Rose bengal was activated with an endoilluminator light pipe for 3 minutes. […] After each elevation, the treated wound was checked for the presence of any possible wound leak with the Seidel test, and the highest intraocular pressure at which the wound remained intact was recorded. This experiment was repeated three times on three different occasions and the results were calculated as average±standard deviation. […]

Data set [4] is described as follows: Attachment strength of photo-melded inner collagenous layer explants in a buoyancy chamber. Also on record: species or system human. The note with it: for Attachment strength: 35 mW light at 40 mm. On the procedure: Bruch's membrane explants were harvested from cadaver eyes. RPE-Bruch's membrane-Choroid complexes were dissected out under a microscope; washed with PBS three times and kept in 0.02N ammonium hydroxide for 30 minutes to lyse all cellular components. Three cycles of PBS washing followed by removal of the basal lamina mechanically as described before. Briefly, a full thickness circumferential incision was made posterior to the ora serrata and the anterior segment and vitreous were removed carefully. The posterior pole of each eye cup was inspected visually with direct and retroillumination under a dissecting microscope and globes were discarded if there was any evidence of subretinal blood, previous surgery or any extensive structural or vascular alteration of the posterior segment due to a disease process, such as proliferative diabetic retinopathy or proliferative vitreoretinopathy. The eyecups were put in carbon dioxide-free Media (Gibco) and a scleral incision was made 3 mm from the limbus and extended circumferentially. Four radial incisions were then made and the sclera was peeled away. […] The choroid-Bruch's membrane-RPE complex was then carefully peeled towards the optic disc and removed after trimming its attachment to the optic nerve. Native RPE were removed by bathing the explant with 0.02 N ammonium hydroxide in a 50-mm polystyrene Petri dish (Falcon, Becton Dickinson, Lincoln Park, N.J.) for 20 minutes at room temperature followed by washing three times in phosphate-buffered saline (PBS). The Bruch's membrane explant from the fellow eye was prepared by removing the RPE with 0.02N ammonium hydroxide as described above. The Bruch's membrane explant was then floated in CFM over a 12-18 micron thick hydrophilic polycarbonate-polyvinylpyrrolidone membrane with 0.4 micron pores (Millipore, Bedford, Mass.) with the basal lamina facing towards the membrane. The curled edges were flattened from the choroidal side with fine forceps without touching Bruch's membrane. Four percent agarose (Sigma Chemical Co., St. Louis, Mo.) was poured on the Bruch's membrane-choroid complex from the choroidal side and the tissue was kept at 4° C. for 2-3 minutes to solidify the agarose. The hydrophilic membrane was peeled off along with the basal lamina of the RPE thus exposing the bare inner collagenous layer. 6 mm circular buttons were then trephined from peripheral Bruch's membrane on a Teflon sheet and placed on 4% agarose at 37° C. in non-treated polystyrene wells of a 96 well plate (Corning Costar Corp., Cambridge, Mass.). The agarose solidified within 2-3 minutes at room temperature, thus stabilizing the Bruch's membrane explant. The wells were gently rinsed with PBS three times for 5 minutes, gamma sterilized (20,000 rads) and then stored at 4° C. Explants with exposed ICL were then cut with a 6-mm trephine and stored in sterile PBS after gamma sterilization at 20,000 rads. At the time of use ICL surface was painted with rose bengal (at concentrations as provided in FIG. 2) and two patches were faced to each other at their ICL surface. Extra fluid was removed with a Whatman #30 filter paper and the two surfaces were apposed. […] Exposure time was limited to three minutes not to exceed photo-toxicity thresholds. […] Exposed inner collagenous layers were painted with rose bengal and photo-[…] to each other by photo-exciting rose bengal with a white light source. The light intensity matched the vitrectomy endo illuminator and exposure was limited to 3 minutes to avoid retinal photo-toxicity. […] Attached grafts were kept under 0.21 mN (milliNewtons) of constant traction for 3 days to test the stability of the […] process.

Description for PRC, CC and RPE cells: In order to assess the additive effect of subsequent ambient light on cell toxicity anterior segments of three eyecups were removed and a 20-D PMMA PC IOL was sutured into the ciliary sulcus. Sensory retina was carefully lifted off and foveal RPE cells were removed mechanically. Exposed Bruch's membrane was intentionally damaged and a 6-mm Bruch's membrane patch graft photo-melded by photo-exciting 1.5 mM of rose bengal through sensory retina. After the photo-melding procedure, the eyecup was maintained at room temperature for 6 hours exposed to ambient light. At the end of this period cellular viability was assessed with Live-Dead assay. Again, PBS treated eyes served as control.

Consider `O=C([O-])c1c(Cl)c(Cl)c(Cl)c(Cl)c1-c1c2cc(I)c(=O)c(I)c-2oc2c(I)c([O-])c(I)cc12.[Na+].[Na+]` [rose bengal, tetratodotetrachioro fluorescein disodium salt], for which the “PRC, CC and RPE cell viability immediately after photo-melding procedure” value in data set [1] (1.5 mM rose bengal) and in data set [1] (10 mM rose bengal) was “no adverse side effect” throughout. Further, the “Concentration at which collagen crosslinking reached its maximum” value in data set [2] came out at 1.5 mM. In the data set on PRC, CC and RPE cells, the “PRC, CC and RPE cell viability after photo-melding and ambient light exposure” value is listed as “did not effect the viability”. The “Highest intraocular pressure at which the wound remained intact” value in data set [3] was determined as 75.6±5.8 mmHg. In addition, the Attachment strength is on record as 14.1 N/m^2 in data set [4] (1.5 mM rose bengal, 3 min); 14.1 N/m^2 in data set [4] (5 mM rose bengal, 3 min); 5.7 N/m^2 in data set [4] (10 mM rose bengal, 3 min); 2.83 N/m^2 in data set [4] (20 mM rose bengal, 3 min). In addition, the “Minimum concentration to attain strong photo-melding of human inner collagenous layer grafts” value in data set [4] (3 min, 35 mW light) is given as 1.5 mM. In data set [4] (3 min exposure to 35 mW of light at 40 millimeters), the “Concentration resulting in photo-melding of exposed human inner collagenous layers” value is on record as “above 0.1 mM”. The “Stability of photo-melded grafts under continuous traction” value in data set [4] (72 hours of observation at 37° C., 0.21 mN constant traction) is recorded as “remained attached”.
As to `O=CC(O)CO` (stereo not shown) [glyceraldehyde], the “Highest intraocular pressure at which the wound remained intact” value in data set [3] came to 66.1±6.0 mmHg.
